Values of other authors in patent publication US20260285945A1, “OMOMYC AND KRAS INHIBITORS COMBINATION THERAPY FOR THE TREATMENT OF CANCER” (PEPTOMYC, S.L., priority 2023, published 2026).

System: cancer cell proliferation
Conditions: single agent; background of the invention

Structure (SMILES): CNCc1ccccc1-c1csc([C@@H](C)Nc2nc(C)nc3cc(OC)c(OC)cc23)c1 [BAY-293]
- Inhibition of cancer cell proliferation, potency: weak potency
